According to patent US6087120A, “Measurement of complement activation by biomaterials by means of complement convertase cleavage of peptide substrates” (HaemoProbe B.V., priority 1996, dated 2000):
“Also recorded” adds a separate entry of the source. Peptide text beside a SMILES is read from it. * marks the point of attachment. pNA = O=[N+]([O-])c1ccc(N*)cc1; Boc = CC(C)(C)OC(=O)*; Bz = O=C(c1ccccc1)*

What was measured:
Type in all cases: biochemical, Human
C5-convertase [1] = experiment: Complement convertase bound to biomaterial surface: cleavage of BOC-Leu-Gly-Arg-pNA, OD 405 nm; conditions: washed PDMS after incubation in def PPP; 60 hours; FIG. 3a
Description: Human blood was collected from a healthy volunteer by vena puncture. […] Then blood was centrifuged (1100 xg) to obtain separation between plasma and blood cells. In our experiments we used this citrated human plasma after treatment with reptilase to coagulate fibrinogen. This plasma, deficient of fibrinogen (def PPP), contains the other coagulation components and can be mixed with Ca^++ containing buffer to optimize complement activation. This def PPP was stored in aliquots at -80° C. We diluted this in 50 mM TRIS buffer+33 mM CaCl2 (pH 7.4) to a percentage of 20% prior to use. The biomaterial PDMS (polydimethyl-siloxane, silicon rubber) was cut into 1 cm^2 pieces. For cleaning the biomaterial it was incubated at first in 70% ethanol, and then rinsed in 0.9% NaCl. During the experiment the pieces of biomaterials were incubated in 500 μl diluted def PPP during 0, 10, 30, or 60 min at room temperature. After incubation, the biomaterials were rinsed 3 times with saline. Then the biomaterials were incubated in BOC-Leu-Gly-Arg-pNA, diluted in TRIS buffer +33 mM CaCl2, during 60 hours at room temperature in the dark. Simultaneously, also 100 μl def PPP, in which the biomaterials had been incubated, were mixed with 100 μl of H-Leu-Gly-Arg-pNA or Bz-Leu-Gly-Arg-pNA, diluted in TRIS buffer, supplemented with 33 mM CaCl2.

C5-convertase [2] = experiment: Complement convertase released in incubated def PPP: cleavage of H- or Bz-Leu-Gly-Arg-pNA, OD 405 nm; conditions: for substrate cleavage in the incubated plasma solution: def PPP after incubation with PDMS, 60 hours, FIG. 3a; for specificity of the substrate for complement activation: judged from the effect of EDTA and enzyme inhibitors on cleavage, FIG. 6
Description: Human blood was collected from a healthy volunteer by vena puncture. Blood was mixed immediately with sodium citrate (0.316%, final concentration) to prevent clotting. Then blood was centrifuged (1100 xg) to obtain separation between plasma and blood cells. In our experiments we used this citrated human plasma after treatment with reptilase to coagulate fibrinogen. This plasma, deficient of fibrinogen (def PPP), contains the other coagulation components and can be mixed with Ca^++ containing buffer to optimize complement activation. This def PPP was stored in aliquots at -80° C. We diluted this in 50 mM TRIS buffer+33 mM CaCl2 (pH 7.4) to a percentage of 20% prior to use. The biomaterial PDMS (polydimethyl-siloxane, silicon rubber) was cut into 1 cm^2 pieces. For cleaning the biomaterial it was incubated at first in 70% ethanol, and then rinsed in 0.9% NaCl. During the experiment the pieces of biomaterials were incubated in 500 μl diluted def PPP during 0, 10, 30, or 60 min at room temperature. After incubation, the biomaterials were rinsed 3 times with saline. Then the biomaterials were incubated in BOC-Leu-Gly-Arg-pNA, diluted in TRIS buffer +33 mM CaCl2, during 60 hours at room temperature in the dark. Simultaneously, also 100 μl def PPP, in which the biomaterials had been incubated, were mixed with 100 μl of H-Leu-Gly-Arg-pNA or Bz-Leu-Gly-Arg-pNA, diluted in TRIS buffer, supplemented with 33 mM CaCl2. After these 60 hours the OD was measured at 405 nm in a spectrophotometer (microplate reader 3550 UV; Biorad, Richmond, Calif., USA).
In a second experiment the incubated def PPP was incubated in the presence of Ca^++ as described above and 100 μl def PPP was collected after 30 minutes. Then this collected def PPP was incubated with H-Leu-Gly-Arg-pNA and Bz-Leu-Gly-Arg-pNA in the presence of Ca^++ or in the absence of Ca^++ with EDTA.

complement convertase = experiment: Effect of enzyme inhibitors or EDTA present during incubation of PDMS in def PPP on convertase formation; conditions: for inhibition of substrate conversion by inhibitor added prior to incubation: PDMS in def PPP aliquots, substrate H-Leu-Gly-Arg-pNA, FIG. 6
Description: To verify the specificity of complement convertase activity, PDMS was incubated with diluted def PPP supplemented with Ca^++ (allowing convertases to be formed) or with EDTA (preventing convertase formation).
A number of enzyme inhibitors was used to further specify the complement convertase test of the incubated def PPP with substrate H-Leu-Gly-Arg-pNA.During incubation with PDMS in different aliquots a specific thrombin inhibitor (I2581, Kabi), C1 esterase inhibitor (Sigma), the plasmin/kallikrein/chymotrypsin inhibitor aprotinin (Bayer) and EDTA was used.

Compound | substrate cleavage in the incubated plasma solution (C5-convertase [2]) | specificity of the substrate for complement activation (C5-convertase [2]; FIG. 4a) | inhibition of substrate conversion by inhibitor added prior to incubation (complement convertase) | also measured
CC(C)C[C@H](NC(=O)OC(C)(C)C)C(=O)NCC(=O)N[C@@H](CCCNC(=N)N)C(=O)Nc1ccc([N+](=O)[O-])cc1 [BOC-Leu-Gly-Arg-pNA] (Boc-Leu-Gly-Arg-pNA) |  |  |  | substrate cleavage on the PDMS surface (C5-convertase [1]): most effective on the PDMS surface; also recorded: colour formation
CC(C)C[C@H](NC(=O)c1ccccc1)C(=O)NCC(=O)N[C@@H](CCCNC(=N)N)C(=O)Nc1ccc([N+](=O)[O-])cc1 [Bz-Leu-Gly-Arg-pNA] (Bz-Leu-Gly-Arg-pNA) | effective in the plasma solution; also recorded: colour formation | not reduced by EDTA; also recorded: considered non-specific |  | 
O=C(O)CN(CCN(CC(=O)O)CC(=O)O)CC(=O)O [EDTA, ethylenediamine tetra-acetic acid, reference compound] |  |  | almost completely prevented substrate conversion; also recorded: best inhibitor | effect of EDTA during substrate cleavage (second incubation) on formed convertases (C5-convertase [2]; def PPP collected after 30 min with PDMS, EDTA added with the substrate, FIG. 4a): did not prevent substrate cleavage by formed complexes; also recorded: formed convertases remained active in EDTA; convertase formation with EDTA instead of Ca++ during incubation (complement convertase; PDMS in diluted def PPP supplemented with Ca++ or EDTA): completely prevented convertase formation
CC(C)C[C@H](N)C(=O)NCC(=O)N[C@@H](CCCNC(=N)N)C(=O)Nc1ccc([N+](=O)[O-])cc1 [H-Leu-Gly-Arg-pNA] (H-Leu-Gly-Arg-pNA) | effective in the plasma solution; also recorded: colour formation | complement dependent |  | 
aprotinin |  |  | did not inhibit substrate conversion; also recorded: then aprotinin | 
